Laboratory results as given in patent US5955500A (G. D. Searle & Co., priority 1997, dated 1999).
“And” between values parts separate entries of the source, which are not always exact repeats. Equal values may be shown once. Read-outs that look alike come from different tables or passages of the source.

Key:
[1] = for Concentration in octanol / Concentration in water: pH 5, individual replicates
[2] = system: canine heart; conditions: for AH time / Heart rate / Mean arterial pressure: mean ± SE
Protocol: Fourteen adult mongrel dogs of either sex weighing between 19 and 25 kg were prepared for chronic electrophysiologic investigation by implanting epicardial electrodes and an indwelling aortic catheter. The dogs were fasted overnight and initially anesthetized with halothane on the day of surgery. After tracheal intubation, anesthesia was maintained with isoflurane and oxygen via positive pressure ventilation to keep end tidal carbon dioxide within the normal range. Muscular relaxation was induced by pancuronium. A right thoracotomy was performed in the fifth intercostal space. Three bipolar electrode pairs were sutured to the epicardial surface of the right atrial appendage and on the right and left ventricular apex (FIG. 5). A bipolar electrode was sutured to the right atrium close to the anatomical region of the sinoatrial node. A bipolar plunge electrode was placed into base of the interventricular septum to record a His bundle electrogram. An indwelling arterial catheter was placed into the aorta through the left femoral artery after surgical exposure of the artery at the inner side of the hind limb. All electrode leads were subcutaneously tunneled and exited through the skin between the scapulae. Incisions were closed in anatomic fashion and standard postoperative methods of analgesia were provided with 0.015 mg/kg of buprenorphine (Buprenex®, Reckitt & Colman, Hull, UK) and two times of 25 mg/kg cefazolin (Cefazolin Sodium®, SoloPak Laboratories, Elk Groove Village, Ill.) and dogs were allowed to recover from surgery for a period of seven days prior to testing.
Electrical signals from the bipolar electrodes, after suitable amplification in a custom built preamplifier (gain 1000), were filtered in a separate custom designed and built common mode rejection amplifier with a bandpass filter of 10-1000 Hz and individually adjusted for signal strength (maximal gain 400). […] Right atrial appendage (RA), right ventricular apex (RVA) and His bundle electrograms (HB) were recorded, simultaneously. […] All measurements of conduction times were made during spontaneous sinus rhythm.
The His bundle electrode (HBE) was advanced into the base of the interatrial septum from the aortic root. The electrode was advanced from a point located just behind and to the right of the origin of the right coronary artery. The HBE was slowly advanced parallel to the aorta, inferiorly and slightly anteriorly until a well discernible His potential was recorded. AV conduction (AH) interval was measured as the time difference (ms) between the onset of the initial rapid deflection in the RA electrogram to the beginning of the His potential in the HB electrogram. His-ventricular (HV) conduction time interval (ms) was measured from the beginning of the His potential (HBE) to the initial deflection of the QRS complex wave (earliest left ventricular activation) in a simultaneously recorded surface ECG lead II.
As an indicator of automaticity, sinus node recovery time (SNRT) was determined by pacing the right atrial appendage (30 s at 180 and 200 beats/min at 2 msec pulse duration; 2×threshold). SNRT was measured from the last pacing spike to the first spontaneous atrial activity on the His bundle electrogram after cessation of pacing (ms).
A timed extrastimulus (S2) was delivered 300 ms after the preceding pacing spike (S1).
Verapamil was dissolved in 5% dextrose and water ([…]).
During the postoperative period, each dog was trained to stand quietly in a sling during electrophysiological monitoring. Prior to measurement, electrical signals in each dog were monitored to verify the absence of spontaneous arrhythmias other-than normal respiratory sinus arrhythmias.
From the resting dog, 5 channel records were obtained at a sampling rate of 1 kHz per channel for 7 min to determine the following conduction intervals: AH, HV, QRS, QT and HR. A corrected QT interval [QTc=QT interval in ms/ (R-R interval in s)^1/2 ] was also calculated.

[3] = system: isolated working rat heart; conditions: S 100 ng/ml plus R 50-950 ng/ml cumulative
[4] = system: isolated working rat heart
[5] = S 100 ng/ml, R 950 ng/ml, R/S ratio 9.5

With COc1ccc(CCN(C)CCCC(C#N)(c2ccc(OC)c(OC)c2)C(C)C)cc1OC (racemic) [20/80S] the “Eutectic compound identification (phase diagram based on Po/w)” value ([1]; pH 5) was “eutectic compound”, the Concentration in octanol ([1]; listed as 80) was 4160 ng/mL and 4490 ng/mL and 3810 ng/mL and the Concentration in water ([1]; listed as 80) was 6950 ng/mL and 6930 ng/mL and 6920 ng/mL. For the same compound, the AH time ([2]; 0.1 mg/kg i.v., 0 min) was 88 ± 5 ms, the Heart rate ([2]; 0.1 mg/kg i.v., 0 min) was 155 ± 13 beats per min and the Mean arterial pressure ([2]; 0.1 mg/kg i.v., 0 min) was 92 ± 4 mmHg. It also gave an AH time ([2]; 0.1 mg/kg i.v., 1 min) of 100 ± 5 ms, a Heart rate ([2]; 0.1 mg/kg i.v., 1 min) of 143 ± 11 beats per min and a Mean arterial pressure ([2]; 0.1 mg/kg i.v., 1 min) of 97 ± 3 mmHg. It also gave an AH time ([2]; 0.1 mg/kg i.v., 2 min) of 106 ± 5 ms, a Heart rate ([2]; 0.1 mg/kg i.v., 2 min) of 127 ± 10 beats per min and a Mean arterial pressure ([2]; 0.1 mg/kg i.v., 2 min) of 100 ± 3 mmHg. The AH time ([2]; 0.1 mg/kg i.v., 3 min) was 107 ± 5 ms, the Heart rate ([2]; 0.1 mg/kg i.v., 3 min) was 124 ± 9 beats per min and the Mean arterial pressure ([2]; 0.1 mg/kg i.v., 3 min) was 100 ± 4 mmHg. For the same compound, the AH time ([2]; 0.1 mg/kg i.v., 4 min) was 111 ± 6 ms, the Heart rate ([2]; 0.1 mg/kg i.v., 4 min) was 113 ± 11 beats per min and the Mean arterial pressure ([2]; 0.1 mg/kg i.v., 4 min) was 99 ± 4 mmHg. For the same compound, the AH time ([2]; 0.1 mg/kg i.v., 5 min) was 112 ± 5 ms, the Heart rate ([2]; 0.1 mg/kg i.v., 5 min) was 111 ± 8 beats per min and the Mean arterial pressure ([2]; 0.1 mg/kg i.v., 5 min) was 101 ± 4 mmHg. The AH time ([2]; 0.2 mg/kg i.v., 0 min) was 110 ± 10 ms, the Heart rate ([2]; 0.2 mg/kg i.v., 0 min) was 168 ± 10 beats per min and the Mean arterial pressure ([2]; 0.2 mg/kg i.v., 0 min) was 84 ± 3 mmHg. The AH time ([2]; 0.2 mg/kg i.v., 1 min) was 126 ± 11 ms, the Heart rate ([2]; 0.2 mg/kg i.v., 1 min) was 166 ± 9 beats per min and the Mean arterial pressure ([2]; 0.2 mg/kg i.v., 1 min) was 87 ± 4 mmHg. The AH time ([2]; 0.2 mg/kg i.v., 2 min) was 133 ± 10 ms, the Heart rate ([2]; 0.2 mg/kg i.v., 2 min) was 154 ± 8 beats per min and the Mean arterial pressure ([2]; 0.2 mg/kg i.v., 2 min) was 93 ± 5 mmHg. For the same compound, the AH time ([2]; 0.2 mg/kg i.v., 3 min) was 140 ± 12 ms, the Heart rate ([2]; 0.2 mg/kg i.v., 3 min) was 141 ± 11 beats per min and the Mean arterial pressure ([2]; 0.2 mg/kg i.v., 3 min) was 94 ± 5 mmHg. The AH time ([2]; 0.2 mg/kg i.v., 4 min) was 127 ± 14 ms, the Heart rate ([2]; 0.2 mg/kg i.v., 4 min) was 155 ± 16 beats per min and the Mean arterial pressure ([2]; 0.2 mg/kg i.v., 4 min) was 97 ± 5 mmHg. The AH time ([2]; 0.2 mg/kg i.v., 5 min) was 130 ± 11 ms, the Heart rate ([2]; 0.2 mg/kg i.v., 5 min) was 146 ± 4 beats per min and the Mean arterial pressure ([2]; 0.2 mg/kg i.v., 5 min) was 98 ± 3 mmHg. For the same compound, the “Occurrence of AV conduction block” value ([2]; 0.2 mg/kg i.v., listed as 20R/80S-verapamil) was 5 animals, the “Occurrence of second and third degree AV conduction block” value ([2]; 0.4 mg/kg i.v., listed as 20R/80S-verapamil) was “all” and the “Recovery of the decrease in MAP” value ([2]; compared with any other groups) was “slower”. The “Peak effect on HR, in words” value ([2]; dog, in vivo) was “drastic increase in HR”, the “QTc interval compared with 100R-verapamil, in words” value ([2]; dog, in vivo) was “significantly increased compared with 100R-verapamil” and the “Interaction between MAP and HR (multiple linear regression), in words” value ([2]; increase in HR against drop in MAP) was “greatest rate of increase in HR as opposed to a drop in MAP”.
With COc1ccc(CCN(C)CCCC(C#N)(c2ccc(OC)c(OC)c2)C(C)C)cc1OC (racemic) [R/S (0.5)] the “Cardiac output (CO), significance vs predrug” value [3] was “n.s” and the “Heart rate (HR), significance vs predrug” value [3] was “n.s”.
For COc1ccc(CCN(C)CCCC(C#N)(c2ccc(OC)c(OC)c2)C(C)C)cc1OC (racemic) [R/S (2.0)], the “Cardiac output (CO), significance vs predrug” value [3] was “n.s”, the “Heart rate (HR), significance vs predrug” value [3] was “n.s” and the “Peak systolic pressure (PSP), significance vs predrug” value [3] was “n.s”.
With COc1ccc(CCN(C)CCCC(C#N)(c2ccc(OC)c(OC)c2)C(C)C)cc1OC (racemic) [R/S (4.5)] the “Heart rate (HR), significance vs predrug” value [3] was “n.s” and the “Peak systolic pressure (PSP), significance vs predrug” value [3] was “n.s”.
With COc1ccc(CCN(C)CCCC(C#N)(c2ccc(OC)c(OC)c2)C(C)C)cc1OC (racemic) [R/S (9.5)] the “Effect of mixture on heart rate, in words” value ([4]; R/S ratio 9.5) was “additive” and the “Peak systolic pressure (PSP), significance vs predrug” value [4, 5] was “n.s”.
For COc1ccc(CCN(C)CCC[C@@](C#N)(c2ccc(OC)c(OC)c2)C(C)C)cc1OC [S-verapamil, reference compound], the Concentration in octanol ([1]; listed as 100) was 5150 ng/mL and 5290 ng/mL and 5530 ng/mL, the Concentration in water ([1]; listed as 100) was 4080 ng/mL and 4880 ng/mL and 6220 ng/mL and the “Reduction of peak systolic pressure and cardiac output, in words” value ([4]; S 100 ng/ml vs R 950 ng/ml) was “more effective at reducing peak systolic pressure (FIG. 2b) as well as cardiac output”. The “Nature of cardiac effect (inotropic / chronotropic)” value ([4]; S 100 ng/ml, R 950 ng/ml) was “primarily an inotropic drug” and the “Heart rate (HR), significance vs predrug” value [4, 5] was “n.s”.
